The results in this text go back to USRE49735E1 (BRISTOL-MYERS SQUIBB COMPANY, priority 2010, dated 2023).

pEC50: −log10 of the molar value. “And” between values parts separate entries of the source, which are not always exact repeats. Equal values may be shown once. Some results are limits rather than exact numbers.

This experiment has as its target human mGluR5A (Homo sapiens, UniProt P41594). The experiment can be described thus: mGluR5 FLIPR Assay. It is filed as cell-based. The following applies: positive modulator activity; HEK293 (ZF) cells with human mGluR5A and rat GLAST; Ca++ response to ~EC10 glutamate.

Sequence of human mGluR5A (P41594 21-1180 isoform P41594-2): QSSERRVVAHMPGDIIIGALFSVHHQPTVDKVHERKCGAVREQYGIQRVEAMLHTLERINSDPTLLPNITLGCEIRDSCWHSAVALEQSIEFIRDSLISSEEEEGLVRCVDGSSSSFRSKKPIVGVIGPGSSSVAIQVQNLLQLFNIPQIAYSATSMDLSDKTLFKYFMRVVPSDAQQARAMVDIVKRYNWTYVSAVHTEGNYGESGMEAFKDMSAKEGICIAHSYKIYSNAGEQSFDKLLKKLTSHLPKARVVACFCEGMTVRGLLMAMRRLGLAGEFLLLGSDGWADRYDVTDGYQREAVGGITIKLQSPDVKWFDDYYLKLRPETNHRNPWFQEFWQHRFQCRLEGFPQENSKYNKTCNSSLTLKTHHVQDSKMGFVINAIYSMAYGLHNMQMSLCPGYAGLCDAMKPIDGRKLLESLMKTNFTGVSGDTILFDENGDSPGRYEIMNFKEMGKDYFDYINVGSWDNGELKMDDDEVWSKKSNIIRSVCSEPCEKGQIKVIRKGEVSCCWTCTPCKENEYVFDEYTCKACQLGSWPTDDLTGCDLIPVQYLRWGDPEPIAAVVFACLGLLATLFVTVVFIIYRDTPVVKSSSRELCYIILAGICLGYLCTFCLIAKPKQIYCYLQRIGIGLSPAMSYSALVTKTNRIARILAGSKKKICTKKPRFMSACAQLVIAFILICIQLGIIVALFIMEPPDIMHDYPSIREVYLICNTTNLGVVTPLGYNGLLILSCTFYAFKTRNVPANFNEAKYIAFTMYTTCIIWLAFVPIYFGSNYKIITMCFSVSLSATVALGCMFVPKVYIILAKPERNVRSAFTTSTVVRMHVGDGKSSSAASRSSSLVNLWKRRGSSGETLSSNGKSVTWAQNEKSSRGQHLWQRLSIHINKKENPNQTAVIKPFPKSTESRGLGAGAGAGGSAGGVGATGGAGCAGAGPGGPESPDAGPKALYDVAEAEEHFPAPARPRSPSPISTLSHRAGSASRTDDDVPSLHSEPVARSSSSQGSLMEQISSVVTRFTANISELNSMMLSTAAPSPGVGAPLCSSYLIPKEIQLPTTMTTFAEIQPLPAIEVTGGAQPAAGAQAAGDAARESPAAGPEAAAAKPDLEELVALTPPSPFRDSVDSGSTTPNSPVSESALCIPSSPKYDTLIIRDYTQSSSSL

Broadly, the pEC50 is the negative decadic logarithm of the EC50, by convention in mol/L. Low values mean a high EC50, high ones a low EC50. For the compound `O=C1N[C@H](c2cncc(C#Cc3ccccn3)c2)[C@@H](c2cccc(F)c2)O1` [Example 34, (4R,5R)-5-(3-Fluorophenyl)-4-(5-(pyridin-2-ylethynyl)pyridin-3-yl)oxazolidin-2-one], the pEC50 was less than 6.00. Regarding `O=C1N[C@H](c2cncc(C#Cc3cccc(Cl)c3)c2)[C@@H](c2c(F)cccc2F)O1` [Example 281], the pEC50 is less than 6.00. `O=C1N[C@@H](c2cc(C#Cc3ccccc3)cnc2F)[C@H](c2ccccc2F)O1` (single isomer, unassigned) [Example 374] gave a negative-log EC50 (pEC50) of less than 6.00.

The compound `COc1cccc([C@@H]2OC(=O)N[C@H]2c2cccc(C#Cc3ccccc3)n2)c1` (single isomer, unassigned) [Example 6] had a pEC50 of less than 6.00. Consider `COc1cccc([C@H]2OC(=O)N[C@@H]2c2cccc(C#Cc3cccc(C#N)n3)c2)c1` [Example 75, 6-((3-((4R,5R)-5-(3-Methoxyphenyl)-2-oxooxazolidin-4-yl)phenyl)ethynyl)picolinonitrile], for which the negative logarithm of the EC50 (pEC50) was less than 4.52. Take `O=C1N[C@H](c2cc(C#Cc3ccccc3)ccn2)[C@@H](c2ccc(F)cc2)O1` (single isomer, unassigned) [Example 297]: the negative-log EC50 (pEC50) is > 7.00 and 8.33.

`COc1cccc([C@@H]2OC(=O)N[C@H]2c2cccc(C#Cc3ccc(F)cc3F)c2)c1` [Example 128, (4S,5S)-4-(3-((2,4-difluorophenyl)ethynyl)phenyl)-5-(3-methoxyphenyl)oxazolidin-2-one] gave a pEC50 of less than 6.00. On to `O=C1N[C@H](c2cncc(C#Cc3ccnnc3)c2)[C@@H](c2cc(F)ccc2F)O1` [Example 393, (4R,5R)-5-(2,5-difluorophenyl)-4-(5-(pyridazin-4-ylethynyl)pyridin-3-yl)oxazolidin-2-one], for which the negative-log EC50 (pEC50) was less than 6.00. In the case of `O=C1N[C@H](c2cc(C#Cc3ccccc3)cnc2F)[C@@H](c2cc(F)ccc2F)O1` [Example 302] it was more than 7.00. `COc1cccc([C@H]2OC(=O)N[C@@H]2c2cccc(C#Cc3cnccc3Cl)c2)c1` [Example 84, (4R,5R)-4-(3-((4-Chloropyridin-3-yl)ethynyl)phenyl)-5-(3-methoxyphenyl)oxazolidin-2-one] had a pEC50 of less than 6.00. The compound `O=C1N[C@H](c2cncc(C#Cc3cnccn3)c2)[C@@H](c2c(F)cc(F)cc2F)O1` [Example 295] gave a negative logarithm of the EC50 (pEC50) of less than 6.00. As to `O=C1N[C@@H](c2cncc(C#Cc3ccccc3)c2)[C@H](c2cc(Cl)ccc2Cl)O1` (single isomer, unassigned) [Example 325], the pEC50 is less than 5.82. The compound `O=C1N[C@H](c2cccc(C#Cc3ccccc3)n2)[C@@H](c2ccccc2F)O1` (single isomer, unassigned) [Example 307] gave a pEC50 of less than 6.00.

As for `N#Cc1cccc(C#Cc2cncc([C@H]3NC(=O)O[C@@H]3c3ccc(F)cc3F)c2)c1` [Example 180], the pEC50 is 6.00 to 7.00 and 6.59. `COc1cccc([C@H]2OC(=O)N[C@@H]2c2cccc(C#Cc3ccnc(C)c3)c2)c1` [Example 60, (4R,5R)-5-(3-Methoxyphenyl)-4-(3-((2-methylpyridin-4-yl)ethnyl)phenyl)oxazolidin-2-one] gave a pEC50 of less than 6.00.

As to `COc1cccc([C@H]2OC(=O)N[C@@H]2c2cccc(C#Cc3cccnc3C)c2)c1` [Example 87, (4R,5R)-5-(3-Methoxyphenyl)-4-(3-((2-methylpyridin-3-yl)ethynyl)phenyl)oxazolidin-2-one], the pEC50 was less than 6.00. Take `O=C1N[C@H](c2cncc(C#Cc3cccc(F)c3)c2)[C@@H](c2cccc(F)c2F)O1` [Example 285]: the pEC50 was 6.00 to 7.00. With `O=C1N[C@@H](c2cccc(C#Cc3cccnc3)c2)[C@H](c2ccncn2)O1` [Example 240], the pEC50 is less than 6.00.

In turn, `O=C1N[C@H](c2cncc(C#Cc3ccccc3Cl)c2)[C@@H](c2cc(F)ccc2F)O1` [Example 392, (4R,5R)-4-(5-((2-chlorophenyl)ethynyl)pyridin-3-yl)-5-(2,5-difluorophenyl)oxazolidin-2-one] gave a pEC50 of more than 7.00. For the compound `COc1ccccc1[C@@H]1OC(=O)N[C@@H]1c1cncc(C#Cc2ccccc2)c1` (single isomer, unassigned) [Example 335], the pEC50 was less than 6.00. `O=C1N[C@@H](c2cncc(C#Cc3ccccc3)c2)[C@@H](c2cc(Cl)ccc2Cl)O1` (single isomer, unassigned) [Example 328] showed a pEC50 of less than 6.00.

For the compound `C[C@@]1(c2cncc(C#Cc3ccccc3)c2)NC(=O)O[C@H]1c1cc(F)ccc1F` (single isomer, unassigned) [Example 406], the pEC50 was 6.00 to 7.00. In the case of `COc1cccc([C@H]2OC(=O)N[C@@H]2c2cccc(C#Cc3ccc(C(F)(F)F)cc3)c2)c1` [Example 119, (4R,5R)-5-(3-methoxyphenyl)-4-(3-((4-(trifluoromethyl)phenyl)ethynyl)phenyl)oxazolidin-2-one] it was less than 6.00; in that of `O=C1N[C@@H](c2cccc(C#Cc3cccnc3)n2)[C@H](c2ccccc2)O1` (single isomer, unassigned) [Example 27], less than 6.00; in that of `O=C1N[C@H](c2cc(C#Cc3ccc4nccnc4c3)cnc2F)[C@@H](c2ccc(F)cc2)O1` [Example 154, (4R,5R)-4-(2-fluoro-5-(quinoxalin-6-ylethynyl)pyridin-3-yl)-5-(4-fluorophenyl)oxazolidin-2-one], less than 6.00. Next, `O=C1N[C@H](c2cccc(C#Cc3ccccc3)c2)[C@@H](c2cnccn2)O1` [Example 246]: less than 6.00; `O=C1N[C@H](c2cncc(C#Cc3cccnc3)c2)[C@@H](c2ccc(F)cc2)O1` (single isomer, unassigned) [Example 43]: more than 7.00; `COc1cccc([C@@H]2OC(=O)N[C@H]2c2cncc(C#Cc3ccccn3)c2)c1` (single isomer, unassigned) [Example 28]: less than 6.00. The compound `Cc1ccc([C@H]2OC(=O)N[C@@H]2c2cccc(C#Cc3ccccc3)c2)cc1` [Example 107] had a pEC50 of more than 7.00. In turn, `O=C1N[C@@H](c2cncc(C#Cc3ccccc3)c2)[C@H](c2cccc(Cl)c2)O1` (single isomer, unassigned) [Example 361] showed a pEC50 of less than 6.00. Compound `COc1cccc([C@H]2OC(=O)N[C@@H]2c2cccc(C#Cc3ccccc3N)c2)c1` [Example 265] showed a negative-log EC50 (pEC50) of 6.00 to 7.00. Turning to `O=C1N[C@@H](c2cncc(C#Cc3ccccc3)c2)[C@H](c2ccccc2Cl)O1` (single isomer, unassigned) [Example 363], the pEC50 was more than 7.00. Next, `COc1ccccc1[C@H]1OC(=O)N[C@@H]1c1cncc(C#Cc2ccccc2)c1` (single isomer, unassigned) [Example 334]: less than 5.52. Regarding `O=C1N[C@H](c2cncc(C#Cc3ccccc3)c2)[C@@H](c2cc(F)cc(F)c2F)O1` [Example 293], the pEC50 is less than 6.00.

The compound `O=C1N[C@H](c2cncc(C#Cc3ccccc3)c2)[C@@H](c2ccccc2Cl)O1` (single isomer, unassigned) [Example 364] gave a pEC50 of less than 6.00. In turn, `Cc1cccc([C@@H]2OC(=O)N[C@@H]2c2cccc(C#Cc3ccccc3)c2)c1` (racemic) [Example 98, cis-4-(3-(phenylethynyl)phenyl)-5-m-tolyloxazolidin-2-one] gave a negative-log EC50 (pEC50) of less than 6.00.

With `O=C1N[C@H](c2cncc(C#Cc3cc(Cl)cc(Cl)c3)c2)[C@@H](c2cc(F)ccc2F)O1` [Example 389, (4R,5R)-4-(5-((3,5-Dichlorophenyl)ethynyl)pyridin-3-yl)-5-(2,5-difluorophenyl)oxazolidin-2-one], the pEC50 was less than 6.00. Regarding `O=C1N[C@H](c2nc(C#Cc3ccccc3)ccc2F)[C@@H](c2ccccc2)O1` (single isomer, unassigned) [Example 305], the pEC50 was less than 6.00. With `O=C1N[C@H](c2cncc(C#Cc3cncc(F)c3)c2)[C@@H](c2cc(F)ccc2F)O1` [Example 187], the negative-log EC50 (pEC50) is more than 7.00.

`COc1cccc([C@H]2OC(=O)N[C@@H]2c2cccc(C#Cc3ncccn3)c2)c1` [Example 64, (4R,5R)-5-(3-Methoxyphenyl)-4-(3-(pyrimidin-2-ylethynyl)phenyl)oxazolidin-2-one]: the pEC50 is less than 4.52. In turn, `COc1cccc([C@H]2OC(=O)N[C@@H]2c2cccc(C#Cc3cc(F)cc(F)c3)c2)c1` [Example 123, (4R,5R)-4-(3-((3,5-difluorophenyl)ethynyl)phenyl)-5-(3-methoxyphenyl)oxazolidin-2-one] gave a negative logarithm of the EC50 (pEC50) of 6.00 to 7.00. Turning to `O=C1N[C@H](c2cncc(C#Cc3cccc(Cl)c3)c2)[C@@H](c2cccc(F)c2F)O1` [Example 280], the pEC50 is less than 6.00.

With `COc1cccc([C@@H]2OC(=O)N[C@H]2c2cccc(C#Cc3ccccc3)c2)c1` [Example 2, (4S,5S)-5-(3-Methoxyphenyl)-4-(3-(phenylethynyl)phenyl)oxazolidin-2-one], the pEC50 was less than 4.52. On to `O=C1N[C@H](c2cc(C#Cc3ccccc3Cl)ccn2)[C@@H](c2ccc(F)cc2)O1` (single isomer, unassigned) [Example 351], for which the pEC50 is 6.00 to 7.00. `C[C@@]1(c2cncc(C#Cc3ncccc3F)c2)NC(=O)O[C@H]1c1ccc(F)cc1` (single isomer, unassigned) [Example 344] showed a pEC50 of more than 7.00.

Turning to `C[C@@]1(c2ccccc2)OC(=O)N[C@@H]1c1cncc(C#Cc2ccccc2)c1` [Example 228], the negative-log EC50 (pEC50) is less than 6.00. Compound `COc1cccc([C@H]2OC(=O)N[C@@H]2c2cccc(C#Cc3cnc4cc[nH]c4c3)c2)c1` [Example 197] showed a pEC50 of less than 6.00. In turn, `Cc1cccc([C@@H]2OC(=O)N[C@H]2c2cccc(C#Cc3ccccc3)c2)c1` (racemic) [Example 99, trans-4-(3-(phenylethynyl)phenyl)-5-m-tolyloxazolidin-2-one] had a pEC50 of more than 7.00.

The compound `O=C1N[C@H](c2cc(C#Cc3ccccn3)cnc2F)[C@@H](c2cccc(F)c2)O1` [Example 148, (4R,5R)-4-(2-Fluoro-5-(pyridin-2-ylethynyl)pyridin-3-yl)-5-(3-fluorophenyl)oxazolidin-2-one] gave a pEC50 of less than 6.00. As to `COc1cccc([C@H]2OC(=O)N[C@@H]2c2cccc(C#Cc3ccccc3F)c2)c1` [Example 121, (4R,5R)-4-(3-((2-fluorophenyl)ethynyl)phenyl)-5-(3-methoxyphenyl)oxazolidin-2-one], the pEC50 was more than 7.00.
